How the values were obtained:
[1] = system: wireworm; experiment: Corn yield, stand and runts on fields with wireworm pressure (Tables 5, 6); type: in vivo; settings: for Yield bu/ac: 250 μg AI/seed
[2] = system: black cutworms; experiment: Field efficacy against high pressure of black cutworms, plant stand protection (FIG. 5, 6); type: in vivo, Agrotis ipsilon
Procedure: (§1) Efficacy of chlorantraniliprole against high pressure of black cutworms, and plant stand protection (15 DAP) was tested (FIG. 5). In addition, efficacy of chlorantraniliprole for healthier stand and longer seedling protection against black cutworms (9 DAI) was also tested (FIG. 6). See also Tables 3 and 4 for increased mortality rates of cutworms with chlorantraniliprole alone and in combination with other insecticides. Mortality of 3rd instar black cutworms, which were exposed to corn leaf samples in in-vivo leaf feeding bioassays, was recorded at specific evaluation dates. The leaf samples were collected from treated corn seed according to the treatment in Tables 3-4.
(§2) All treatments included a combination of fungicides (Fludioxonil, Mefenoxam, Azoxystrobin, Thiabendazole). Soil Texture was fine clay loam; insect species: Agrotis ipsilon; infestation: 2, 3rd instar larva/plant; Plot size: 6 rows×20 feet; Seeding rate: 39,000/acre; Experimental design: Randomized Complete Block (RCB); 9 trtms×4 rep.

[3] = system: wireworms; experiment: Growth chamber wireworm bioassay on treated corn seed (FIG. 9); type: in vivo, Melanotus spp.; settings: 250 to 750 μg AI/seed; corn at V3-V4; vs untreated check
Procedure: In addition, the efficacy of corn seed treated with chlorantraniliprole to protect seeds and seedlings from soil pests such as wireworms was determined at a growth chamber. A total of 8 repetitions were conducted and the following evaluations were observed:
Evaluations: 1. Emergence; 2. Wireworm damaged plants; 4. Wireworm mortality; 5. Fresh plan weight
Bioassays were conducted in a growth chamber in using field-collected Melanotus spp. wireworms. […] weighted wireworms were individually placed into plastic pots containing filtered field-collected soil and one corn seed for a total of 48 wireworms in 8 pots for each treatment The containers were maintained at 20±2° C., 40 to 70% RH, and a photoperiod of 10:14 (L:D), and were watered daily.
The following seed treatment combinations were used and the results are shown in FIG. 9: Chlorantraniliprole at 250 to 750 μg AI/seed; thiamethoxam (IST) at 250 μg AI/seed; and clothianidin (+Bacillus firmus 1-1582) at 1250 μg AI/seed.

[4] = system: wireworm; experiment: Field efficacy against wireworm and impact on corn yield, vigor and stand (FIG. 1, 2); type: in vivo
Procedure: Efficacy of chlorantraniliprole against wireworm (30 DAP) and impact on corn yield were tested (FIG. 1) based on data from 4 Locations. Unless indicated otherwise in this Example or in any other Example herein, “BASE ST” included Fludioxonil, Mefenoxam, Azoxystrobin, Thiabendazole (fungicides), Thiamethoxam (insecticide) and biological amendments (B. subtilis, and B. simplex). The BASE ST may also include other fungicides.
Efficacy of chlorantraniliprole was also tested against high wireworm pressure locations for plant vigor and yield and stand protection (FIG. 2 A-B). “FST” indicates fungicide seed treatment.
The chlorantraniliprole was applied at a concentration of 0.25 mg ai/seed and other commercially available insecticides and/or fungicides were applied at the labeled rates. […] In an embodiment, the BASE ST included thiamethoxam at 250 μg AI/seed.

[5] = system: black cutworms; experiment: Black cutworm mortality after 10 DAI, leaf feeding bioassay (Table 4); type: in vivo, Agrotis ipsilon
Procedure: as §1

[6] = system: black cutworms; experiment: Cutworm mortality and residual control, leaf feeding bioassay on leaves from treated corn seed (Table 3); type: in vivo, Agrotis ipsilon
Procedure: as §1, §2

[7] = system: white grub; experiment: Efficacy against white grub and impact on corn yield (FIG. 3, 4); type: in vivo, Japanese Beetle larvae; settings: added to BASE ST, compared to BASE ST alone
[8] = Table 6, fields with constant wireworm pressure, N = 7
[9] = added to BASE ST, compared to FST alone, high wireworm pressure
[10] = seed treatment 500 μg AI/seed (clothianidin 500)
[11] = seed treatment 250 μg AI/seed, 3rd instar black cutworms on corn leaf samples
[12] = seed treatment 250 μg AI/seed, residual control

CNC(=O)c1cc(Cl)cc(C)c1NC(=O)c1cc(Br)nn1-c1ncccc1Cl [Chlorantraniliprole, 3-bromo-N-[4-chloro-2-methyl-6-[(methylamino)carbonyl]phenyl]-1-(3-chloro-2-pyridinyl)-1H-pyrazole-5-carboxamide]
Yield bu/ac ([1]; Table 5, fields with wireworm pressure): 172.3 bu/ac
Yield bu/ac [1, 8]: 164.3 bu/ac
corn grain yield ([1]; locations with wireworm infestations, chlorantraniliprole 250 to 750 μg AI/seed alone or with thiamethoxam 250 μg AI/seed): increased corn grain yield
stand and seedling protection against black cutworms ([2]; 9 DAI (FIG. 6)): increased healthier stand and longer seedling protection
reduction in plant mortality ([2]; compared to FST alone, black cutworm): 62%
black cutworm damage to corn plants ([2]; high black cutworm pressure, 15 DAP): significantly reduced
fresh plant weight [3]: significantly higher plant weight than the untreated check/control
corn yield ([4]; 0.25 mg ai/seed added to BASE ST, compared to BASE ST alone): yield increase
wireworm count per 10 plants ([4]; 0.25 mg ai/seed added to BASE ST, compared to BASE ST alone, 30 DAP, 4 locations): significantly reduced
plant vigor [4, 9]: significantly increased
stand protection [4, 9]: protected stand
yield ([4]; added to BASE ST, compared to FST alone, high wireworm pressure (FIG. 2A)): increased significantly
Mortality % ([5]; seed treatment 250 μg AI/seed): 100.00%
Mortality % [5, 10]: 100.00%
Mortality % ([5]; seed treatment 750 μg AI/seed): 100.00%
Mortality % 12 DAP [6, 11]: 100.00%
Mortality % 39 DAP [6, 12]: 32.95%
Mortality % 12 DAP [6, 10]: 100.00%
Mortality % 39 DAP [6, 10]: 31.25%
Mortality % 12 DAP ([6]; seed treatment 750 μg AI/seed): 100.00%
Mortality % 39 DAP ([6]; seed treatment 750 μg AI/seed): 21.11%
grain yield [7]: increased grain yield
white grub count per 10 plants ([7]; 30 DAP, 3 locations): significantly reduced

CN/C(=N\[N+](=O)[O-])NCc1cnc(Cl)s1 [Clothianidin, reference compound]
Mortality % [5, 10]: 93.75%
Mortality % 12 DAP [6, 10]: 97.92%
Mortality % 39 DAP [6, 10]: 25.00%

CN1COCN(Cc2cnc(Cl)s2)/C1=N\[N+](=O)[O-] [Thiamethoxam, reference compound]
Yield bu/ac [1, 8]: 173.3 bu/ac
runts ([1]; seedling stage, wireworms, each active at 250 μg AI/seed): 8.8%
Mortality % ([5]; seed treatment 250 μg AI/seed): 22.92%
Mortality % 12 DAP [6, 11]: 95.83%
Mortality % 39 DAP [6, 12]: 31.25%
